The target of this assay is Ras-related protein Rab-7a (Canis lupus familiaris, UniProt P18067). The experiment in a line: Rab7 GTP binding inhibitors, analog potency, SAR follow-up, biochemical, oxadiazole analogs, multiplex bead flow cytometry (AID 2031). The note with it: inactive by the depositor's call. A general note: A flow cytometer gives signals particle by particle.
Ras-related protein Rab-7a, sequence (P18067 whole entry): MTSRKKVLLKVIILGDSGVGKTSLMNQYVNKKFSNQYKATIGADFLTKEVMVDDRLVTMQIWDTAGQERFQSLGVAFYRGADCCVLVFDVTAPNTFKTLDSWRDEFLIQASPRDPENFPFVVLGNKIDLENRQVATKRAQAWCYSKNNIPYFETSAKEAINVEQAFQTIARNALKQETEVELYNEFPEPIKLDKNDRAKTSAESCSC

A word on the Ki: it is the equilibrium dissociation constant of an inhibitor or competing ligand from its target. Low values mean higher affinity, high ones lower affinity. In the case of `Cc1ccc(C)c(N2CCN(C(=O)CCc3nc(-c4ccc(Br)cc4)no3)CC2)c1` [UNM-0000306072], affinity was put at a Ki of 100 nM.

For `COc1ccc(-c2noc(CCC(=O)N3CCN(c4cccc(C)c4C)CC3)n2)cc1` [1-[4-(2,3-dimethylphenyl)-1-piperazinyl]-3-[3-(4-methoxyphenyl)-1,2,4-oxadiazol-5-yl]-1-propanone], the Ki came to 100 nM. This lies in the sub-micromolar range.
